Reference: ChEMBL document CHEMBL1201862, “PubChem BioAssay data set” (2004)
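How tested: cells in 96-well plates exposed to compound for 48 hours at five concentrations. Abbreviation: GI50, concentration required for 50% inhibition of growth.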 Activity calls are given as the source filed them. No stated cut-off is given here; in the data, active = GI50 up to about 1.1 µM and inactive = higher.

Legend:
Test in all cases: inhibition of tumour cell growth, NCI panel, 48 h
[1] = tested on: OVCAR-4
[2] = tested on: 786-0
[3] = tested on: NCI/ADR-RES
[4] = tested on: M14
[5] = tested on: CAKI-1
[6] = tested on: UACC-62
[7] = tested on: SR
[8] = tested on: IGROV-1
[9] = tested on: HCC 2998
[10] = tested on: MDA-N
[11] = tested on: A549
[12] = tested on: BT-549
[13] = tested on: OVCAR-3
[14] = tested on: SW-620
[15] = tested on: MDA-MB-435
[16] = tested on: KM12
[17] = tested on: HOP-92
[18] = tested on: SK-OV-3
[19] = tested on: CCRF-CEM
[20] = tested on: UACC-257

Structure (SMILES): NCCN(CCN)/[N+]([O-])=N/O
- GI50 [1]: > 100 µM (inactive)
- GI50 [2]: > 100 µM (inactive)
- GI50 [3]: 82.8 µM (inactive)
- GI50 [4]: 72.8 µM (inactive)
- GI50 [5]: > 100 µM (inactive)
- GI50 [6]: > 100 µM (inactive)
- GI50 [7]: 91.2 µM (inactive)
- GI50 [8]: > 100 µM (inactive)
- GI50 [9]: > 100 µM (inactive)
- GI50 [10]: > 100 µM (inactive)
- GI50 [11]: > 100 µM (inactive)
- GI50 [12]: > 100 µM (inactive)
- GI50 [13]: > 100 µM (inactive)
- GI50 [14]: > 100 µM (inactive)
- GI50 [15]: > 100 µM (inactive)
- GI50 [16]: > 100 µM (inactive)
- GI50 [17]: > 100 µM (inactive)
- GI50 [18]: > 100 µM (inactive)
- GI50 [19]: 43.6 µM (inactive)
- GI50 [20]: > 100 µM (inactive)

Structure (SMILES): Cc1cc(NC(=O)NC(=O)c2ccccc2NC(=O)CN(C)C)ccc1Oc1ncc(Br)cn1
- GI50 [1]: 71.3 µM (inactive)
- GI50 [2]: 3.52 µM (inactive)
- GI50 [3]: 1.05 µM (active)
- GI50 [4]: 1.58 µM (inactive)
- GI50 [5]: 3.68 µM (inactive)
- GI50 [6]: 2.21 µM (inactive)
- GI50 [7]: 3.24 µM (inactive)
- GI50 [8]: 6.27 µM (inactive)
- GI50 [9]: 1.22 µM (inactive)
- GI50 [10]: 0.221 µM (active)
- GI50 [11]: 3.54 µM (inactive)
- GI50 [12]: > 100 µM (inactive)
- GI50 [13]: 1.04 µM (active)
- GI50 [14]: 2.02 µM (inactive)
- GI50 [15]: 0.289 µM (active)
- GI50 [16]: 1.36 µM (inactive)
- GI50 [17]: 20.3 µM (inactive)
- GI50 [18]: 2.81 µM (inactive)
- GI50 [19]: 2.26 µM (inactive)
- GI50 [20]: 57.5 µM (inactive)

Structure (SMILES): CC(=O)OCCn1c(Cc2ccc([N+](=O)[O-])cc2)nn(C(C)=O)c1=O
- GI50 [1]: > 100 µM (inactive)
- GI50 [2]: > 100 µM (inactive)
- GI50 [3]: > 100 µM (inactive)
- GI50 [4]: > 100 µM (inactive)
- GI50 [5]: > 100 µM (inactive)
- GI50 [6]: > 100 µM (inactive)
- GI50 [7]: > 100 µM (inactive)
- GI50 [8]: > 100 µM (inactive)
- GI50 [9]: > 100 µM (inactive)
- GI50 [10]: > 100 µM (inactive)
- GI50 [11]: > 100 µM (inactive)
- GI50 [12]: > 100 µM (inactive)
- GI50 [13]: > 100 µM (inactive)
- GI50 [14]: > 100 µM (inactive)
- GI50 [15]: > 100 µM (inactive)
- GI50 [16]: > 100 µM (inactive)
- GI50 [17]: > 100 µM (inactive)
- GI50 [18]: > 100 µM (inactive)
- GI50 [19]: > 100 µM (inactive)
- GI50 [20]: > 100 µM (inactive)

Structure (SMILES): CSc1ccc(/C=C2\N=C(c3ccccc3)N(/N=C/c3cc4cc(C)ccc4nc3Cl)C2=O)cc1
- GI50 [1]: 17.1 µM (inactive)
- GI50 [2]: 17.9 µM (inactive)
- GI50 [3]: 19.1 µM (inactive)
- GI50 [4]: 16.7 µM (inactive)
- GI50 [5]: 18.1 µM (inactive)
- GI50 [6]: 15.6 µM (inactive)
- GI50 [7]: 12.1 µM (inactive)
- GI50 [8]: 14.3 µM (inactive)
- GI50 [9]: 16 µM (inactive)
- GI50 [10]: 14.4 µM (inactive)
- GI50 [11]: 19.5 µM (inactive)
- GI50 [12]: 22.8 µM (inactive)
- GI50 [13]: 19.5 µM (inactive)
- GI50 [14]: 27.4 µM (inactive)
- GI50 [15]: 8.15 µM (inactive)
- GI50 [16]: 14.3 µM (inactive)
- GI50 [17]: 17.9 µM (inactive)
- GI50 [18]: 24 µM (inactive)
- GI50 [19]: 12 µM (inactive)
- GI50 [20]: 19.4 µM (inactive)

Structure (SMILES): O=[N+]([O-])c1ccc(N2N=C(c3c(O)ccc4ccccc34)CC2c2ccc(Cl)cc2)c([N+](=O)[O-])c1 (stereo not given)
- GI50 [1]: 64.9 µM (inactive)
- GI50 [2]: 27.9 µM (inactive)
- GI50 [3]: 16.4 µM (inactive)
- GI50 [4]: 18.5 µM (inactive)
- GI50 [5]: 28.7 µM (inactive)
- GI50 [6]: 7.13 µM (inactive)
- GI50 [7]: 6.97 µM (inactive)
- GI50 [8]: 22.1 µM (inactive)
- GI50 [9]: 28.6 µM (inactive)
- GI50 [10]: 33.1 µM (inactive)
- GI50 [11]: 15.1 µM (inactive)
- GI50 [12]: 32.5 µM (inactive)
- GI50 [13]: 29.9 µM (inactive)
- GI50 [14]: 25.3 µM (inactive)
- GI50 [15]: 25.6 µM (inactive)
- GI50 [16]: 5.65 µM (inactive)
- GI50 [17]: 26 µM (inactive)
- GI50 [18]: 27.5 µM (inactive)
- GI50 [19]: 11.1 µM (inactive)
- GI50 [20]: 37.1 µM (inactive)
